Results as given in article PMC3065929 (Journal of the American Chemical Society, 2011).

How the values were obtained:
Format in all cases: biochemical
CoBPO [1] = target: T1, CoBPO (Corallina officinalis, UniProt Q8LLW7); assay: conversion to products
T1 sequence (Q8LLW7 1-598): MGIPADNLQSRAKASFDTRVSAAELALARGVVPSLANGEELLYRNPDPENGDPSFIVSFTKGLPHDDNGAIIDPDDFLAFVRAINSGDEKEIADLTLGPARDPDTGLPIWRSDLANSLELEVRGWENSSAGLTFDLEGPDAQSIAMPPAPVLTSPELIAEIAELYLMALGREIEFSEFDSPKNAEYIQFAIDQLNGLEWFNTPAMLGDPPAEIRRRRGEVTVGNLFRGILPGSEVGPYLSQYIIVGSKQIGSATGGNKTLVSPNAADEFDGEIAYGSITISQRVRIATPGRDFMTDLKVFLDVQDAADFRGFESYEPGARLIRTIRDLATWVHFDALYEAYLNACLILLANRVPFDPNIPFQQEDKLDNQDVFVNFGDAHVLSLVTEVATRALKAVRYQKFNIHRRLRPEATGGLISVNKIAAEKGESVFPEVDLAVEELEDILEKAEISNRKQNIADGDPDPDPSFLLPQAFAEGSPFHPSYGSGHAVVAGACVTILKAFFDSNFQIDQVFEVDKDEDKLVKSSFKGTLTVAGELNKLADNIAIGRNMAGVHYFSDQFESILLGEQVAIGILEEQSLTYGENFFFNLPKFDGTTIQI

NapH1 = target: T2, NapH1 (Streptomyces sp. CNQ-525, UniProt A7KH27); assay: HPLC assay of chlorination-cyclization; conditions: H2O2, chloride, pH 6; estimated, below detection limit of the assay
T2 sequence (A7KH27 42-527): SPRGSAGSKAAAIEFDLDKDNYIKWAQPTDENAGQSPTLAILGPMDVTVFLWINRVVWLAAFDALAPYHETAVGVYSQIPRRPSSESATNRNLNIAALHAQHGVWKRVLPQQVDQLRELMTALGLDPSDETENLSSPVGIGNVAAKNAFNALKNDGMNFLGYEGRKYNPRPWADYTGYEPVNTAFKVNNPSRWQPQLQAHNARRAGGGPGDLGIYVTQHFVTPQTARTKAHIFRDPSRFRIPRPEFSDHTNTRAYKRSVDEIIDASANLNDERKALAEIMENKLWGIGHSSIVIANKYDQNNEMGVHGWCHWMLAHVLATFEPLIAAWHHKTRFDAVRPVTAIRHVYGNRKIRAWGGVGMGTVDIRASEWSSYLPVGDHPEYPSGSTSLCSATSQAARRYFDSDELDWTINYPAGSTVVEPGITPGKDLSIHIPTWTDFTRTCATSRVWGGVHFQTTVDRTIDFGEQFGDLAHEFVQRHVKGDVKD

CoBPO [2] = target: T1, CoBPO; assay: spectrophotometric MCD bromination assay; conditions: H2O2, 0.2 M bromide, 30 °C

## CC(C)=CCC1=C(O)C(=O)c2ccccc2C1=O [lapachol, 4-hydroxy-3-(3-methylbut-2-enyl)naphthalene-1,2-dione]
CoBPO [1]
  conversion to products: CoBPO catalyzed the complete conversion of lapachol into numerous products

## CC(C)=CCC/C(C)=C/C[C@@]1(O)C(=O)c2cc(O)c(C)c(O)c2C(=O)[C@]1(Cl)CC=C(C)C [compound 3, SF2415B1]
NapH1
  Km: < 1000 nM

## CC1(C)CC(=O)C(Cl)C(=O)C1 [monochlorodimedone]
CoBPO [2]
  spectrophotometric MCD bromination assay (290 nm): Corallina officinalis V-BPO (CoBPO) (below)
